biological target: MAT2A (Homo sapiens, UniProt P31153); test: MAT2A Biochemical Assay; details: 1 uM start, 3-fold dilution, 10 doses; Biomol Green, O.D.620; read-out: MAT2A enzymatic IC50
Description: Example A: MAT2A Biochemical Assay
Compounds described herein were tested as follows:
(1). Prepared 1× Assay buffer.
(2). Preparation of compound concentration gradient: the compounds test condition were 1 uM start, 3-fold dilution, 10 doses, singlet or duplicate. 100× concentration compounds were prepared in 384-well plate. Then used Echo 550 to transfer 250 nl to a 384-reaction plate for later use. Added 250 nl of 100% DMSO to the negative and positive control wells.
(3). Prepared 1.67× final concentration enzyme solution with 1× Assay buffer.
(4). Added 15 μl of 1.67× Enzyme solution to the compound wells and positive control wells; added 15 μl of 1× Assay buffer to the negative control wells.
(5). Centrifuged at 1000 rpm for 30 seconds and incubate for 15 minutes.
(6). Prepared 2.5× final concentration Substrate mix solution with 1× Assay buffer.
(7). Added 10 μl of 2.5× final concentration Substrate mix solution to start the reaction.
(8). Centrifuged at 1000 rpm for 30 seconds and incubate for 150 minutes.
(9). Added 50 μl Biomol Green to stop the reaction, centrifuge at 1000 rpm for 30 seconds and incubate for 15 minutes, read O.D.620, process data.
(1) Using GraphPad Prism 5.
(2) % Inh=(Max signal−Compound signal)/(Max signal−Min signal)*100.
(3) Max signal was obtained from the positive control wells.
(4) Min signal was obtained from the negative control wells.

Sequence of MAT2A (P31153 whole entry, species assumed): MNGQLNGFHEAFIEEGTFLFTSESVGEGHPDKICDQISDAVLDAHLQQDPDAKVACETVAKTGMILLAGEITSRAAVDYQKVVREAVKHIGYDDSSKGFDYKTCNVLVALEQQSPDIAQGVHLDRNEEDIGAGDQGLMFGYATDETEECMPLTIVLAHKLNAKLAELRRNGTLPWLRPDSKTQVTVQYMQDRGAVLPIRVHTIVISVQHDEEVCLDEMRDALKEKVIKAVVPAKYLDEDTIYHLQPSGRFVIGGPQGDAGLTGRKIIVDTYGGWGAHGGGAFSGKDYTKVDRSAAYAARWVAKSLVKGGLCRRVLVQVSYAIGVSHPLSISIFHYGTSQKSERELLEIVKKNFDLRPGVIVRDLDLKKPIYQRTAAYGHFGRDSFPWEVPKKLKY

IC50, 50 to 100 nM:
C#CCNc1nc(=O)n(-c2cccnc2)c2cc(C(F)(F)F)cc(OC(F)F)c12 [Example 39, 5-(difluoromethoxy)-4-(prop-2-yn-1-ylamino)-1-(pyridin-3-yl)-7-(trifluoromethyl)quinazolin-2(1H)-one]
C#CC1(Nc2nc(=O)n(-c3cccnc3C)c3cc(C(F)(F)F)cc(OC(F)F)c23)CC1 [Example 41, 5-(difluoromethoxy)-4-((1-ethynylcyclopropyl)amino)-1-(2-methylpyridin-3-yl)-7-(trifluoromethyl)quinazolin-2(1H)-one]
CN(C)CC#CCNc1nc(=O)n(-c2cccnc2)c2cc(Cl)ccc12 [Example 3, 7-chloro-4-((4-(dimethylamino)but-2-yn-1-yl)amino)-1-(pyridin-3-yl)quinazolin-2(1H)-one]
C#CC1(Nc2nc(=O)n(-c3cccnc3)c3nc(C(F)(F)F)ncc23)CC1 [Example 62, 4-((1-ethynylcyclopropyl)amino)-1-(pyridin-3-yl)-7-(trifluoromethyl)pyrimido[4,5-d]pyrimidin-2(1H)-one]
C#CC1(Nc2nc(=O)n(-c3cccnc3C)c3nc(C(F)(F)F)cc(OC)c23)CC1 [Example 43, 4-((1-ethynylcyclopropyl)amino)-5-methoxy-1-(2-methylpyridin-3-yl)-7-(trifluoromethyl)pyrido[2,3-d]pyrimidin-2(1H)-one]
C=CC1(Nc2nc(=O)n(-c3cccnc3C)c3cc(C(F)(F)F)cc(OC)c23)CC1 [Example 78]
C#CCNc1nc(=O)n(-c2cnccn2)c2cc(C(F)(F)F)cc(F)c12 [Example 32, 5-fluoro-4-(prop-2-yn-1-ylamino)-1-(pyrazin-2-yl)-7-(trifluoromethyl)quinazolin-2(1H)-one]

IC50, 500 to 1000 nM:
C#CCNc1nc(=O)n(-c2cccnc2)c2cc(C(F)(F)F)cnc12 [Example 55, 4-(prop-2-yn-1-ylamino)-1-(pyridin-3-yl)-7-(trifluoromethyl)pyrido[3,2-d]pyrimidin-2(1H)-one]

IC50, 100 to 500 nM:
C#CCNc1nc(=O)n(-c2cnn(C)c2)c2cc(C(F)(F)F)ccc12 [Example 72, 1-(1-methyl-1H-pyrazol-4-yl)-4-(prop-2-yn-1-ylamino)-7-(trifluoromethyl)quinazolin-2(1H)-one]
C#CC1(O)CN(c2nc(=O)n(-c3ccccc3Cl)c3cc(Cl)ccc23)C1 [Example 12, 7-chloro-1-(2-chlorophenyl)-4-(3-ethynyl-3-hydroxyazetidin-1-yl)quinazolin-2(1H)-one]
C#CCNc1nc(=O)n(-c2cc(C)cnc2C)c2cc(C(F)(F)F)ccc12 [Example 44, 1-(2,5-dimethylpyridin-3-yl)-4-(prop-2-yn-1-ylamino)-7-(trifluoromethyl)quinazolin-2(1H)-one]
C#CCOc1nc(=O)n(-c2cccnc2)c2cc(Cl)ccc12 [Example 9, 7-chloro-4-(prop-2-yn-1-yloxy)-1-(pyridin-3-yl)quinazolin-2(1H)-one]
NC/C=C/CNc1nc(=O)n(-c2cccnc2)c2cc(C(F)(F)F)ccc12 [Example 79, (E)-4-((4-aminobut-2-en-1-yl)amino)-1-(pyridin-3-yl)-7-(trifluoromethyl)quinazolin-2(1H)-one]
C#CCNc1nc(=O)n(-c2cncnc2)c2cc(Cl)ccc12 [Example 71, 7-chloro-4-(prop-2-yn-1-ylamino)-1-(pyrimidin-5-yl)quinazolin-2(1H)-one]
C#CCNc1nc(=O)n(-c2cccnc2)c2cc(C(F)(F)F)ncc12 [Example 58, 4-(prop-2-yn-1-ylamino)-1-(pyridin-3-yl)-7-(trifluoromethyl)pyrido[4,3-d]pyrimidin-2(1H)-one]
C#CC(C)Nc1nc(=O)n(-c2cccnc2)c2cc(C(F)(F)F)ncc12 (stereo not drawn) [Example 59, 4-(but-3-yn-2-ylamino)-1-(pyridin-3-yl)-7-(trifluoromethyl)pyrido[4,3-d]pyrimidin-2(1H)-one]
C#CC1(Nc2nc(=O)n(-c3cccnc3)c3cc(C(F)(F)F)ncc23)CC1 [Example 60, 4-((1-ethynylcyclopropyl)amino)-1-(pyridin-3-yl)-7-(trifluoromethyl)pyrido[4,3-d]pyrimidin-2(1H)-one]
C#CC1CCCN(c2nc(=O)n(-c3ccccc3Cl)c3cc(Cl)ccc23)C1 (stereo not drawn) [Example 11, 7-chloro-1-(2-chlorophenyl)-4-(3-ethynylpiperidin-1-yl)quinazolin-2(1H)-one]

Source: patent US11999713B2, “Methionine adenosyltransferase 2a (MAT2A) inhibitors and uses thereof” (Insilico Medicine IP Limited, priority 2021, dated 2024)
